Measurements from patent US20260200897A1, “4-((5-(3-(4-(PYRIDIN-2-YL)CYCLOPENTYL)-1H-PYRAZOL-3-YL)AMINO)-BENZENESULFONAMIDE DERIVATIVES AND SIMILAR COMPOUNDS AS CDK INHIBITORS FOR THE TREATMENT OF CANCER” (BeOne Medicines I GmbH, priority 2023, published 2026).

Tests used:
CDK1/Cyclin B1 = CDK1/Cyclin B1 (Homo sapiens, UniProt P06493); assay: CDK1/Cyclin B1 TR-FRET biochemical assay, 0.015 mM ATP; conditions: 0.15 μM Rb (Ser780)-biotin substrate, 120 min reaction, Table 1
Description: (§1) Compounds disclosed herein were tested for inhibition of CDK2/Cyclin E1 or CDK1/Cyclin B1 kinase in an assay based on the time-resolved fluorescence-resonance energy transfer (TR-FRET) methodology. The assay was carried out in 384-well low volume black plates in a reaction mixture containing CDK2/Cyclin E1 or CDK1/Cyclin B1, 0.060 mM ATP for CDK2/Cyclin E1 or 0.015 mM ATP for CDK1/Cyclin B1, 0.15 μM Rb (Ser780)-biotin substrate and 0-10 μM compound in buffer containing 50 mM HEPES pH7.0, 0.02% NaN3, 0.01% BSA, 0.1 mM Orthovanadate, 50 mM MgCl2, 1 mM DTT and 0.005% Tween-20. The kinase was incubated with compound for 60 minutes at room temperature and the reaction was initiated by the addition of ATP and Rb (Ser780)-biotin substrate. After reaction at room temperature for 120 minutes, an equal volume of stop/detection solution was added according to the manufacture's instruction (Cisbio Bioassays). The stop/detection solution contained Streptavidin-XL665 and Anti-pRb (Ser780) mAb-Eu Cryptate in Detection buffer (Cisbio Bioassays). Plates were incubated at room temperature for 60 minutes, and the TR-FRET signals (ex337 nm, em665 nm/620 nm) were recorded on a PHERAstar FSX plate reader (BMG Labtech). The inhibition percentage of CDK2/Cyclin E1 or CDK1/Cyclin B1 kinase activity in presence of increasing concentrations of compounds was calculated based on the ratio of fluorescence at 665 nm to that at 620 nm. The IC50 for each compound was derived from fitting the data to the four-parameter logistic equation by Dotmatics.

CDK2/Cyclin E1 = CDK2/Cyclin E1 (Homo sapiens, UniProt P24941); assay: CDK2/Cyclin E1 TR-FRET biochemical assay, 0.060 mM ATP; conditions: 0.15 μM Rb (Ser780)-biotin substrate, 120 min reaction, Table 1
Description: as §1

Sequence of CDK1/Cyclin B1 (P06493 whole entry): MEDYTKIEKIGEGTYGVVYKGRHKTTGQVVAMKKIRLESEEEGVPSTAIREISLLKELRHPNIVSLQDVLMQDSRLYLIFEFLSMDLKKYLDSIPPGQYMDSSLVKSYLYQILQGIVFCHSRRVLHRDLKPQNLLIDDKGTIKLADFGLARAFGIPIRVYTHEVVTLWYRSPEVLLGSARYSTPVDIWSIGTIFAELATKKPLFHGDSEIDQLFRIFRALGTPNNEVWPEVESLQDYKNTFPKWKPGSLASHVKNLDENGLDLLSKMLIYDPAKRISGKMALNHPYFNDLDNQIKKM
Sequence of CDK1/Cyclin B1 (P14635 whole entry partner): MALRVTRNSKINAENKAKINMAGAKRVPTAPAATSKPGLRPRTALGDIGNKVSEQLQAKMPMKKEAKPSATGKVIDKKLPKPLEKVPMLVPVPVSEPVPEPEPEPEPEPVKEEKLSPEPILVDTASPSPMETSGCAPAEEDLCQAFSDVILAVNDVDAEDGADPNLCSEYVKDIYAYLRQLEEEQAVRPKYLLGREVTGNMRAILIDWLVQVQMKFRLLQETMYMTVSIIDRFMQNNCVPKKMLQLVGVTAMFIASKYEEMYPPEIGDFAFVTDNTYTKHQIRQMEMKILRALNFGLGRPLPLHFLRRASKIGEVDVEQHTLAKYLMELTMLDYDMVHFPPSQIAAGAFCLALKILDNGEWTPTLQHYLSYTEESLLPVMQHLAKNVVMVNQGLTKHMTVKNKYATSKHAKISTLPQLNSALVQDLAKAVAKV

IC50 (CDK1/Cyclin B1) [nM]	IC50 (CDK2/Cyclin E1) [nM]	Compound
121	7.1	C=C(C)c1csnc1O[C@@H]1CC[C@H](c2cc(Nc3ccc4c(c3F)CNS4(=O)=O)n[nH]2)C1 (relative stereo) [Example 52, cis-4-fluoro-5-((5-(3-((4-(prop-1-en-2-yl)isothiazol-3-yl)oxy)cyclopentyl)-1H-pyrazol-3-yl)amino)-2,3-dihydrobenzo[d]isothiazole 1,1-dioxide]
1070	53	Cc1n[nH]c(C)c1O[C@@H]1CC[C@H](c2cc(Nc3ccc4c(c3F)CNS4(=O)=O)n[nH]2)C1 (relative stereo) [Example 75, cis-5-((5-(3-((3,5-dimethyl-1H-pyrazol-4-yl)oxy)cyclopentyl)-1H-pyrazol-3-yl)amino)-4-fluoro-2,3-dihydrobenzo[d]isothiazole 1,1-dioxide]
3250	229	CC1(C)CC(=O)N([C@H]2CC[C@@H](c3cc(Nc4ccc5c(c4F)CNS5(=O)=O)n[nH]3)C2)C1=O (relative stereo) [Example 87, cis-1-(3-(3-((4-fluoro-1,1-dioxido-2,3-dihydrobenzo[d]isothiazol-5-yl)amino)-1H-pyrazol-5-yl)cyclopentyl)-3,3-dimethylpyrrolidine-2,5-dione]
334	16	CCc1cnc(C2CCC(c3cc(Nc4ccc5c(c4F)CS(=O)(=O)N5)n[nH]3)C2)o1 (centres unmarked) [Example 144, 5-((5-(3-(5-ethyloxazol-2-yl)cyclopentyl)-1H-pyrazol-3-yl)amino)-4-fluoro-1,3-dihydrobenzo[c]isothiazole 2,2-dioxide]
35	2.6	O=S1(=O)NCc2c1ccc(Nc1cc([C@H]3CC[C@@H](Oc4nnccc4C4CCC4)C3)[nH]n1)c2F (relative stereo) [Example 35, cis-5-((5-(3-((4-cyclobutylpyridazin-3-yl)oxy)cyclopentyl)-1H-pyrazol-3-yl)amino)-4-fluoro-2,3-dihydrobenzo[d]isothiazole 1,1-dioxide]
2150	54	O=S1(=O)NCc2c1ccc(Nc1cc([C@H]3CC[C@@H](Oc4n[nH]c5ccccc45)C3)[nH]n1)c2F (relative stereo) [Example 67, cis-5-((5-(3-((1H-indazol-3-yl)oxy)cyclopentyl)-1H-pyrazol-3-yl)amino)-4-fluoro-2,3-dihydrobenzo[d]isothiazole 1,1-dioxide]
7120	764	CC(C)(C)c1ncccc1O[C@@H]1CC[C@H](c2cc(Nc3ccc4c(c3F)CNS4(=O)=O)n[nH]2)C1 (relative stereo) [Example 45, cis-5-((5-(3-((2-(tert-butyl)pyridin-3-yl)oxy)cyclopentyl)-1H-pyrazol-3-yl)amino)-4-fluoro-2,3-dihydrobenzo[d]isothiazole 1,1-dioxide]
7200	269	CC1(n2cnnc2O[C@@H]2CC[C@H](c3cc(Nc4ccc5c(c4F)CNS5(=O)=O)n[nH]3)C2)CC1 (relative stereo) [Example 58, cis-4-fluoro-5-((5-(3-((4-(1-methylcyclopropyl)-4H-1,2,4-triazol-3-yl)oxy)cyclopentyl)-1H-pyrazol-3-yl)amino)-2,3-dihydrobenzo[d]isothiazole 1,1-dioxide]
> 10000	602	CC(C)N1CC(=O)N([C@H]2CC[C@@H](c3cc(Nc4ccc5c(c4F)CNS5(=O)=O)n[nH]3)C2)C1=O (relative stereo) [Example 82, cis-3-(3-(3-((4-fluoro-1,1-dioxido-2,3-dihydrobenzo[d]isothiazol-5-yl)amino)-1H-pyrazol-5-yl)cyclopentyl)-1-isopropylimidazolidine-2,4-dione]
142	14	CC1(C)NC(=O)N(C2CCC(c3cc(Nc4ccc5c(c4F)CNS5(=O)=O)n[nH]3)C2)C1=O (single isomer, unassigned) [Example 84b, cis-3-(3-(3-((4-fluoro-1,1-dioxido-2,3-dihydrobenzo[d]isothiazol-5-yl)amino)-1H-pyrazol-5-yl)cyclopentyl)-5,5-dimethylimidazolidine-2,4-dione]
486	14	CC(C)c1csnc1O[C@@H]1CC[C@H](c2cc(Nc3ccc4c(c3F)CNS4(=O)=O)n[nH]2)C1 (relative stereo) [Example 55, cis-4-fluoro-5-((5-(3-((4-isopropylisothiazol-3-yl)oxy)cyclopentyl)-1H-pyrazol-3-yl)amino)-2,3-dihydrobenzo[d]isothiazole 1,1-dioxide]
> 10000	2530	Cc1cc(O[C@@H]2CC[C@H](c3cc(Nc4ccc5c(c4F)CNS5(=O)=O)n[nH]3)C2)n(-c2ccccc2)n1 (relative stereo) [Example 66, cis-4-fluoro-5-((5-(3-((3-methyl-1-phenyl-1H-pyrazol-5-yl)oxy)cyclopentyl)-1H-pyrazol-3-yl)amino)-2,3-dihydrobenzo[d]isothiazole 1,1-dioxide]
3120	90	Cn1nccc1O[C@@H]1CC[C@H](c2cc(Nc3ccc4c(c3F)CNS4(=O)=O)n[nH]2)C1 (relative stereo) [Example 63, cis-4-fluoro-5-((5-(3-((1-methyl-1H-pyrazol-5-yl)oxy)cyclopentyl)-1H-pyrazol-3-yl)amino)-2,3-dihydrobenzo[d]isothiazole 1,1-dioxide]
58	4.3	C=C(C)c1ccncc1O[C@@H]1CC[C@H](c2cc(Nc3ccc4c(c3F)CNS4(=O)=O)n[nH]2)C1 (relative stereo) [Example 43, cis-4-fluoro-5-((5-(3-((4-(prop-1-en-2-yl)pyridin-3-yl)oxy)cyclopentyl)-1H-pyrazol-3-yl)amino)-2,3-dihydrobenzo[d]isothiazole 1,1-dioxide]
1760	70	O=S1(=O)NCc2c1ccc(Nc1cc(C3CCC(c4ncc(CO)o4)C3)[nH]n1)c2F (centres unmarked) [Example 93, 4-fluoro-5-((5-(3-(5-(hydroxymethyl)oxazol-2-yl)cyclopentyl)-1H-pyrazol-3-yl)amino)-2,3-dihydrobenzo[d]isothiazole 1,1-dioxide]
1110	41	O=S1(=O)Cc2cc(Nc3cc(C4CCC(c5ncc(CO)o5)C4)[nH]n3)ccc2N1 (centres unmarked) [Example 134, 5-((5-(3-(5-(hydroxymethyl)oxazol-2-yl)cyclopentyl)-1H-pyrazol-3-yl)amino)-1,3-dihydrobenzo[c]isothiazole 2,2-dioxide]
289	31	CC1(C)CN([C@H]2CC[C@@H](c3cc(Nc4ccc5c(c4F)CNS5(=O)=O)n[nH]3)C2)C(=O)N1 (relative stereo) [Example 85, cis-1-(3-(3-((4-fluoro-1,1-dioxido-2,3-dihydrobenzo[d]isothiazol-5-yl)amino)-1H-pyrazol-5-yl)cyclopentyl)-4,4-dimethylimidazolidin-2-one]
> 10000	306	CC(C)n1cc(O[C@@H]2CC[C@H](c3cc(Nc4ccc5c(c4F)CNS5(=O)=O)n[nH]3)C2)cn1 (relative stereo) [Example 78, cis-4-fluoro-5-((5-(3-((1-isopropyl-1H-pyrazol-4-yl)oxy)cyclopentyl)-1H-pyrazol-3-yl)amino)-2,3-dihydrobenzo[d]isothiazole 1,1-dioxide]
56	1	CC(C)(C)c1cn[nH]c1O[C@@H]1CC[C@H](c2cc(Nc3ccc4c(c3F)CNS4(=O)=O)n[nH]2)C1 (relative stereo) [Example 61, cis-5-((5-(3-((4-(tert-butyl)-1H-pyrazol-5-yl)oxy)cyclopentyl)-1H-pyrazol-3-yl)amino)-4-fluoro-2,3-dihydrobenzo[d]isothiazole 1,1-dioxide]
> 10000	530	Cn1cc(O[C@@H]2CC[C@H](c3cc(Nc4ccc5c(c4F)CNS5(=O)=O)n[nH]3)C2)cn1 (relative stereo) [Example 77, cis-4-fluoro-5-((5-(3-((1-methyl-1H-pyrazol-4-yl)oxy)cyclopentyl)-1H-pyrazol-3-yl)amino)-2,3-dihydrobenzo[d]isothiazole 1,1-dioxide]
732	12	CC(C)c1cn[nH]c1O[C@@H]1CC[C@H](c2cc(Nc3ccc4c(c3F)CNS4(=O)=O)n[nH]2)C1 (relative stereo) [Example 60, cis-4-fluoro-5-((5-(3-((4-isopropyl-1H-pyrazol-5-yl)oxy)cyclopentyl)-1H-pyrazol-3-yl)amino)-2,3-dihydrobenzo[d]isothiazole 1,1-dioxide]
418	49	O=c1c(C2CC2)csn1[C@H]1CC[C@@H](c2cc(Nc3ccc4c(c3F)CNS4(=O)=O)n[nH]2)C1 (relative stereo) [Example 54, cis-4-cyclopropyl-2-(3-(3-((4-fluoro-1,1-dioxido-2,3-dihydrobenzo[d]isothiazol-5-yl)amino)-1H-pyrazol-5-yl)cyclopentyl)isothiazol-3 (2H)-one]
